Drawing on paper PMC12947280, “An Antifungal with a Novel Mechanism of Action Discovered via Resistance Gene-Guided Genome Mining” (ACS Central Science, 2026), this text covers EC50 and IC50 for five molecules.

Read-outs that look alike come from different tables or passages of the source.

One experiment has as its system A. fumigatus. Kind of experiment: Inhibition of A. fumigatus growth. Type of experiment: cell-based.
In the next experiment the target is C. albicans ALS (Candida albicans, UniProt A0A1D8PJF9). The experiment in a line: ALS biochemical assay (CaALS).
Sequence of C. albicans ALS (A0A1D8PJF9 entry or part of it): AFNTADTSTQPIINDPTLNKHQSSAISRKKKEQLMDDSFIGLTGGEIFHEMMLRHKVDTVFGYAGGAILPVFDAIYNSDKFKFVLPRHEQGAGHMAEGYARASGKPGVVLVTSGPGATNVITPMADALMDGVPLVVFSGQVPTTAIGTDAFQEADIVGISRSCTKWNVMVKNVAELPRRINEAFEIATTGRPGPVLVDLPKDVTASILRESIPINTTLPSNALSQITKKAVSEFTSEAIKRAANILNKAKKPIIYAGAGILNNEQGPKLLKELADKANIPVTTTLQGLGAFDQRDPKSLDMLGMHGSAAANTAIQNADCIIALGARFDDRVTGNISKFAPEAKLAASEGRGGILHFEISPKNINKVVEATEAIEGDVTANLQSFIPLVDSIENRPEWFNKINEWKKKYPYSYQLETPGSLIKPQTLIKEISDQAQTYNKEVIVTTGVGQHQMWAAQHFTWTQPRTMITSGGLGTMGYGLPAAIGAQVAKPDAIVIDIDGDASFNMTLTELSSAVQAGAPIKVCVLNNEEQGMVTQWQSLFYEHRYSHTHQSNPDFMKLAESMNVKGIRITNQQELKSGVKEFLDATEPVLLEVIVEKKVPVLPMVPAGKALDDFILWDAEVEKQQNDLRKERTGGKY
In the next experiment the target is A. fumigatus ALS (Aspergillus fumigatus, UniProt Q4WXQ3). The experiment in a line: ALS biochemical assay (AfALS). On the procedure:
ALS biochemical assay (AfALS)
Aspergillus fumigatus acetohydroxyacid synthase (AfILV2) lacking the N-terminal mitochondrial-targeting sequence (amino acids 112-752) was overproduced and isolated from E. coli as an N-terminally His6-tagged protein. Assays (50 µL final volume) contained 200 nM His6-AfALS, 8 mM pyruvate, 1 mM thiamine pyrophosphate, and 10 µM flavin adenine dinucleotide, 10 mM MgCl2, 1 mM DTT, 1% DMSO (± inhibitor) in 200 mM KH2PO4 buffer at pH
7.5. Following a 30 min pre-incubation of the enzyme and inhibitor in the reaction mixture at room temperature, reactions were initiated with the addition of pyruvate. AfALS assays were carried out at 30 °C for 120 min. The reaction was quenched with the addition of 5 µL of 10% H2SO4 (v/v in deionized water). Reactions were incubated at 60 °C at incubating microplate shaker for 15 min to convert the product of the ALS reaction, acetolactate, to acetoin.
Subsequently, the concentration of acetoin was determined by the addition of 7.5 µL 6 M NaOH, 25 µL 0.5% creatine (w/v in deionized water), and 25 µL 4% 1-naphthol (w/v in 2.5 M NaOH).
This mixture was incubated at 60 °C in an incubating microplate shaker for 15 min. 40 µL of this reaction mixture was transferred to a half area UV-star 96-well plate (Grenier) and the absorbance at 525 nm was measured on a Spark multimode plate reader (Tecan). The percent inhibition was calculated by the comparison of the signal to DMSO (0% inhibition) and no enzyme (100% inhibition) controls. IC50 values were calculated from the dose response curves using Prism 9 (four parameter, variable slope). […]
(amino acids 58-687) was codon optimized for expression in E. coli and synthesized by […]

The target in experiment [1] is T1, S. cerevisiae ALS wild type (Saccharomyces cerevisiae, UniProt P07342).
T1 construct: made in house; host or cells: E. coli BL21 (DE3), pET28a-ScILV2
T1 sequence (P07342 58-687): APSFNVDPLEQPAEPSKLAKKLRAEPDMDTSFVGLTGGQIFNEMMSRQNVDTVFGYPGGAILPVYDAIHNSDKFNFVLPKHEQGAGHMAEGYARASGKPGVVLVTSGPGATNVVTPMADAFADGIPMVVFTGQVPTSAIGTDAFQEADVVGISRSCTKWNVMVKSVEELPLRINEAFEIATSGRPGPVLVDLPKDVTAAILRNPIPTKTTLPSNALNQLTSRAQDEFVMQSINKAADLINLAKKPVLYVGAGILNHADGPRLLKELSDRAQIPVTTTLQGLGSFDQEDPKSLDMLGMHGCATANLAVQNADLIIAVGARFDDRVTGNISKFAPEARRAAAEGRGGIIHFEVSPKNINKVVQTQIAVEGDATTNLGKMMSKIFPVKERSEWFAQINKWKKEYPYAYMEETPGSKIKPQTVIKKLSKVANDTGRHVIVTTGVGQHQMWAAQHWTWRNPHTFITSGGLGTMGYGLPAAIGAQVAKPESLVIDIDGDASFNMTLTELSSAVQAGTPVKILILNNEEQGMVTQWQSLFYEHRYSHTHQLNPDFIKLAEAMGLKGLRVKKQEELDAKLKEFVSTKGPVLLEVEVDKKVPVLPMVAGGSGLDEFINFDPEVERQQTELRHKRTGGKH
Kind of experiment: ALS biochemical assay (ScALS), wild type. On the procedure: (§1) ALS biochemical assay (ScALS)
(§2) Saccharomyces cerevisiae acetohydroxyacid synthase (ScALS) lacking the N-terminal […]
(§3) Escherichia coli as an N-terminally His6-tagged protein. Assays (50 µL final volume) contained […]
(§4) adenine dinucleotide, 10 mM MgCl2, 1 mM DTT, 1% DMSO (± inhibitor) in 500 mM K2HPO4 buffer at pH 7.5. Following a 30 min pre-incubation of the enzyme and inhibitor in the reaction mixture at room temperature, reactions were initiated with the addition of pyruvate. ScALS assays were carried out at 30 °C for 60 min. The reaction was quenched with the addition of 5 µL of 10% H2SO4 (v/v in deionized water). Reactions were incubated at 60 °C at 800 rpm in an […]
(§5) to acetoin. Subsequently, the concentration of acetoin was determined by the addition of 7.5 µL 6 M NaOH, 25 µL 0.5% creatine (w/v in deionized water), and 25 µL 4% 1-naphthol (w/v in 2.5 M NaOH). This mixture was incubated at 60 °C at 800 rpm in an incubating microplate shaker for […]
(§6) 40 µL of this reaction mixture was transferred to a half area UV-star 96-well plate (Grenier) and the absorbance at 525 nm was measured on a Spark multimode plate reader (Tecan). The percent inhibition was calculated by the comparison of the signal to DMSO (0% […]
(§7) IC50 values were calculated from the dose response curves using Prism 9 (four parameter, variable slope). […]
(§8) Expression and purification of ScALS
(§9) S. cerevisiae ILV2 (the gene or ScALS) lacking the N-terminal mitochondrial-localization tag

The next experiment addresses T2, S. cerevisiae ALS P192S (Saccharomyces cerevisiae, UniProt P07342, P192S).
T2 construct: His6 (followed by a TEV protease site, pET28a) (N); made in house; host or cells: E. coli (inferred from the ScALS method)
The experiment in a line: biochemical. Type of experiment: biochemical. The method, then:
as §1, §2, §3, §4, §5, §6, §7, §8, §9

Setting [2] is: Aspergillus fumigatus; read-out: A. fumigatus growth inhibition EC50 (Figure 4A).
The mark [3] stands for this setting: Aspergillus fumigatus; read-out: A. fumigatus growth inhibition IC50.

Sequence of A. fumigatus ALS (Q4WXQ3 entry or part of it): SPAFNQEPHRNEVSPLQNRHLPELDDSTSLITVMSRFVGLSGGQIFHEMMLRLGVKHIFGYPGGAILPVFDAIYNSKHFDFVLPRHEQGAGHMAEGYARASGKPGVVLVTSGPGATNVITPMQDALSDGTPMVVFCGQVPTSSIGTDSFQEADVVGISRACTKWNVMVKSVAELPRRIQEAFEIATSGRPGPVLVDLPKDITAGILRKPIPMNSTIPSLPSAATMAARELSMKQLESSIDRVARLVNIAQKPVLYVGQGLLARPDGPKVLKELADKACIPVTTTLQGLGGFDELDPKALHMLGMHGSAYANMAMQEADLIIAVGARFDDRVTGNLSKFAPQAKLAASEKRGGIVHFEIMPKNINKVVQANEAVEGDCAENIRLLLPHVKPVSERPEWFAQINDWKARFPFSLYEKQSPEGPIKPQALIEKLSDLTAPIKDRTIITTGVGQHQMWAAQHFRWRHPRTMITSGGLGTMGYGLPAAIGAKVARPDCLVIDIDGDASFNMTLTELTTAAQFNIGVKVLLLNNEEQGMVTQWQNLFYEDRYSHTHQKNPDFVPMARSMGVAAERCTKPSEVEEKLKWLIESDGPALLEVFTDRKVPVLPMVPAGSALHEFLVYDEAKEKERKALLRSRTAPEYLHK
T2 sequence (P07342 58-687 P192S): as the sequence (P07342 58-687) above, with P135S counted along it

As to `C[C@@H](c1ncncc1F)[C@](O)(Cn1cncn1)c1ccc(F)cc1F` [Voriconazole, voriconazole], the EC50 (usually the concentration that produces a half-maximal response) in the experiment on A. fumigatus (setting [2]) was 500 ± 200 nM. In addition, in the experiment with A. fumigatus (setting [3]), the IC50 (as a rule, the concentration needed to halve the response being measured) turned out to be 500 nM.
Take `CCOC(=O)c1ccccc1S(=O)(=O)NC(=O)Nc1nc(Cl)cc(OC)n1` [compound 5, chlormuron ethyl]: the 50% inhibitory concentration (IC50) was 27 ± 5 nM on C. albicans ALS (recombinant CaALS, read-out: ALS IC50 C. albicans); 11 ± 3 nM on A. fumigatus ALS; 90000 nM in the experiment on A. fumigatus (Aspergillus fumigatus, read-out: A. fumigatus growth inhibition IC50). In addition, in the experiment on A. fumigatus (Aspergillus fumigatus, read-out: A. fumigatus growth inhibition EC50 (Figure 4A)), the EC50 is 80000 ± 30000 nM.
As to `COc1cc(OC)nc(Oc2cccc(Oc3nc(OC)cc(OC)n3)c2C(=O)O)n1` [compound 4, bispyribac, reference compound], the IC50 in experiment [1] (recombinant ScALS, read-out: S. cerevisiae ALS IC50 Wild type) was 600 ± 100 nM.
On to `COC(=O)c1ccccc1CS(=O)(=O)NC(=O)Nc1nc(OC)cc(OC)n1` [compound 2, bensulfuron methyl], for which the IC50 stood at 30 ± 4 nM on C. albicans ALS, 100 ± 20 nM on A. fumigatus ALS and 200000 nM with A. fumigatus (setting [3]). Moreover, the EC50 with A. fumigatus (setting [2]) stood at 57000 ± 20000 nM.
In the case of `COc1cnc(OC)n2nc(NS(=O)(=O)c3c(OCC(F)F)cccc3C(F)(F)F)nc12` [compound 3, penoxsulam], the IC50 in experiment [1] worked out at 0.4 ± 0.2 nM; on S. cerevisiae ALS P192S, 150 ± 30 nM; against C. albicans ALS, 3.4 ± 0.6 nM; against A. fumigatus ALS, 0.5 ± 0.2 nM; in the experiment with A. fumigatus (setting [3]) it was 25000 nM. In the experiment with A. fumigatus (setting [2]), the EC50 worked out at 23000 ± 7000 nM.
